From patent US20100210562A1, “USE OF IL-1 RECEPTOR PEPTIDE, ALONE OR IN COMBINATION WITH D-ALA-GLN-OCTADECYL ESTER, AS A THERAPEUTIC AGENT” (priority 2007, published 2010) come the findings set out here.

Where no end group is shown, it is not given here.

The test system of one experiment is HIV-1IIIB. As to conditions: positive controls; MTS readout.
In experiment [1] the test system is Primary Human endothelial cells (HUVEC). Nature of the experiment: Endothelial cell migration assay. Type of experiment: cell-based. As to conditions: 10 micrograms per ml; 22 hours. The protocol: Thereafter, designated concentration of testing peptides—10 micrograms per ml—was added in duplicate wells.
For the next experiment, the system named is HUVEC. Kind of experiment: Endothelial tube formation assay. It is filed as cell-based, human. The settings on record: 10 micrograms per ml; 20 hours; average tubule length. An excerpt:
Positive control was vehicle only. […] Raw data were expressed as average tubule lenghs in pixels±standard deviation.

A further experiment concerns HCMV strain AD169. Kind of experiment: HCMV plaque formation assay in MRC-5 cells. The settings on record: for inhibition of HCMV plaque formation as compared to the virus control experiment: 10 micrograms per ml, 7-10 days.
In experiment [2] the test system is hepatitis B virus (HBV) ayw strain. Kind of experiment: HBV experimental assay system, secreted HBV DNA by TaqMan PCR in HepG2-2.2.15. Type of experiment: cell-based. As to conditions: 10 micrograms per ml; 6 days; HBV DNA in supernatant. Background: Real-time PCR tracks product formation cycle by cycle.
For experiment [3], the system named is Th1/Th2 cytokine production (IL-2, IL-4, IL-5, IFN-γ, TNF-α) in murine spleen cells. Nature of the experiment: Th1/Th2 cytokine profiling assay in ovalbumin-restimulated spleen cells. The settings on record: 10 micrograms per ml; ovalbumin restimulation; 72 hours. It is filed as cell-based, Balb/c mice.
From the text: The Balb/c mice (originated in 1923, it is a popular strain and is used in many different research disciplines. Also classified as an inbred from the production of 20 or more successive brother-sister matings, the Balb/c mouse is albino and small in size) were immunized on Days 1, 15, and 29 with Ovalbumin (Ovalbumin is the main protein found in egg white, commonly used to stimulate an immunological reaction in test animals) in PBS (5 micrograms/injection). On day 50, spleens of the mice were harvested (3 weeks after last boost with Ovalbumin). Cells were cultured (2×10^5/well in triplicate) and incubated with culture medium or test peptides—10 micrograms per ml—for 30 min. Thereafter, additional Ovalbumin was added to the cells at 10 micrograms/ml for in vitro restimulation of the cells. 72 hours later, cell supernatants were harvested and assayed using the Becton Dickinson Mouse Th1/Th2 Cytokine CBA Kit.

As for `Cc1cn([C@H]2C[C@H](N=[N+]=[N-])[C@@H](CO)O2)c(=O)[nH]c1=O` [AZT], the “antiviral activity of positive control compounds (HIV-1)” value in the experiment with HIV-1IIIB is given as “expected levels of antiviral activity”.
For “Lys-Ile-Cys-Ile-Arg-Ile-Gln-Ile-Ser-OH (KICIRIQIS-OH) [Peptide 1]”, the “inhibition of the migration of human endothelial cells” value in experiment [1] worked out at 32%. Moreover, the “inhibition of the tube formation of human endothelial cells” value with HUVEC stood at 12%. In addition, in the experiment with HCMV strain AD169, the “inhibition of HCMV plaque formation as compared to the virus control experiment” value is recorded as “did not inhibit”. Besides, the “inhibition of HBV replication as compared to the virus control infection” value in experiment [2] turned out to be 41.0%. In experiment [3], the “change of the production of IL-2 in murine spleen cells” value is “did not significantly change”, the “change of the production of IL-4 in murine spleen cells” value was “did not significantly change”, the “decrease of the production of IFN-γ in murine spleen cells” value is given as “did not significantly change” and the “decrease of the production of IL-5 in murine spleen cells” value is listed as “did not significantly change”. In addition, the “decrease of the production of TNF-a in murine spleen cells” value in experiment [3] amounted to 97%.
On to D-Ala-Gln-octadecyl ester [Peptide 2], for which the “increase of the migration of endothelial cells” value in experiment [1] amounted to 2%. For the same molecule, in the experiment on HUVEC, the “inhibition of the tube formation of human endothelial cells” value was found to be 10%. Besides, the “inhibition of HCMV plaque formation as compared to the virus control experiment” value in the experiment on HCMV strain AD169 came out at 2.9%. In addition, the “inhibition of HBV replication as compared to the virus control infection” value in experiment [2] is given as 66.0%. Besides, in experiment [3], the “change of the production of IL-2 in murine spleen cells” value is listed as “did not significantly change”, the “change of the production of IL-4 in murine spleen cells” value is “did not significantly change”, the “decrease of the production of IFN-γ in murine spleen cells” value is on record as 98.1% and the “decrease of the production of IL-5 in murine spleen cells” value was determined as 74.2%. Further, the “decrease of the production of TNF-a in murine spleen cells” value in experiment [3] is on record as 71.3%.
Turning to `Nc1nc(O)c2ncn(COC(CO)CO)c2n1` [Ganciclovir, reference compound], the “antiviral activity of positive control compound (HCMV)” value in the experiment on HCMV strain AD169 (positive control) is reported as “expected levels of antiviral activity”.
Take `CC(C)(C)NC(=O)[C@@H]1CN(Cc2cccnc2)CCN1C[C@@H](O)C[C@@H](Cc1ccccc1)C(=O)N[C@H]1c2ccccc2C[C@H]1O` [indinavir]: in the experiment with HIV-1IIIB, the “antiviral activity of positive control compounds (HIV-1)” value was “expected levels of antiviral activity”.
